Laboratory results from paper PMC10817917, “Alkyl deoxyglycoside-polymyxin combinations against critical priority carbapenem-resistant gram-negative bacteria” (Scientific Reports, 2024).
Several values for one entry are separate records, joined by “and”; a condition that tells them apart may be missing. Identical values can stand only once. Like-named read-outs stand apart in the source and are kept apart here.

Assays:
Assay in all cases: Broth microdilution MIC/MBC, glycosides with or without polymyxins
E. coli ATCC 25922 = format: cell-based, Escherichia coli; details: for MIC: Escherichia coli, ATCC25922
E. coli NCTC 13846 = format: cell-based, Escherichia coli; details: strain B
E. cloacae CQ1941 = format: cell-based; details: for MIC: Enterobacter cloacae, CQ1941
[1] = alone, read-out: MICA (MIC of each compound individually)
[2] = combination with the lowest FICI

CCCCCCCCCCCC[C@H]1O[C@H](C)C[C@H](O)[C@H]1O [Compound 5, 1-(4,6-dideoxy-α-D-xylo-hexopyranosyl)dodecane]
MIC of colistin in combination with the compound (E. coli ATCC 25922; Cpd conc. 0.4 μg/mL, strain A): > 0.5 µg/mL
MIC of colistin in combination with the compound (E. coli ATCC 25922; Cpd conc. 0.8 μg/mL, strain A): > 0.5 µg/mL
MIC of colistin in combination with the compound (E. coli ATCC 25922; Cpd conc. 3.125 μg/mL, strain A): 0.25 µg/mL
MIC of colistin in combination with the compound (E. coli ATCC 25922; Cpd conc. 6.25 μg/mL, strain A): 0.125 µg/mL
MIC of colistin in combination with the compound (E. coli ATCC 25922; Cpd conc. 12.5 μg/mL, strain A): ≤ 0.06 µg/mL
MIC of colistin in combination with the compound (E. coli ATCC 25922; Cpd conc. […], strain A): 0.5 µg/mL
MIC (E. coli ATCC 25922; agent alone, no adjuvant (polymyxin conc. 0), strain A, read-out: MIC): > 100 µg/mL
MIC (E. coli ATCC 25922; [1]): > 100 µg/mL
MIC of compound in combination with PMB (E. coli ATCC 25922; PMB 0.25 μg/mL, strain A): 3.1 µg/mL
MIC of compound in combination with PMB (E. coli ATCC 25922; PMB 0.5 μg/mL, strain A): 3.1 µg/mL
MIC of compound in combination with colistin (E. coli ATCC 25922; colistin 0.06 μg/mL, strain A): 12.5 µg/mL
MBC of compound in combination with colistin (E. coli ATCC 25922; colistin 0.125 μg/mL, strain A): 6.3|6.3 μg/mL
MIC of compound in combination with colistin (E. coli ATCC 25922; colistin 0.125 μg/mL, strain A): 6.3 μg/mL and 6.3|6.3 μg/mL
MIC of compound in combination with colistin (E. coli ATCC 25922; colistin 0.25 μg/mL, strain A): 3.1 µg/mL
MIC of compound in combination with colistin (E. coli ATCC 25922; colistin 0.5 μg/mL, strain A): 1.6 µg/mL
MICA(A + B) (MIC of compound in combination with colistin) (E. coli ATCC 25922; [2]): 12.5 mg/L
MICB(A + B) (MIC of colistin in combination with compound) (E. coli ATCC 25922; [2]): 0.06 mg/L
Interpretation (of FICI) (E. coli ATCC 25922; compound + colistin): Synergy (Values ≤ 0.5 were considered synergistic)
FICI (E. coli ATCC 25922; compound + colistin, lowest FICI): 0.18
MIC of colistin in combination with the compound (E. coli NCTC 13846; Cpd conc. 0.4 μg/mL): > 0.5 µg/mL
MIC of colistin in combination with the compound (E. coli NCTC 13846; Cpd conc. 0.8 μg/mL): > 0.5 µg/mL
MIC of colistin in combination with the compound (E. coli NCTC 13846; Cpd conc. 3.125 μg/mL): > 0.5 µg/mL
MIC of colistin in combination with the compound (E. coli NCTC 13846; Cpd conc. 6.25 μg/mL): > 0.5 µg/mL
MIC of colistin in combination with the compound (E. coli NCTC 13846; Cpd conc. 12.5 μg/mL): > 0.5 µg/mL
MIC of colistin in combination with the compound (E. coli NCTC 13846; Cpd conc. […]): > 0.5 µg/mL
MIC (E. coli NCTC 13846; Escherichia coli, NCTC13846, agent alone, no adjuvant (polymyxin conc. 0), read-out: MIC): > 100 µg/mL
MIC of compound in combination with PMB (E. coli NCTC 13846; PMB 0.25 μg/mL): > 100 µg/mL
MIC of compound in combination with PMB (E. coli NCTC 13846; PMB 0.5 μg/mL): > 100 µg/mL
MIC of compound in combination with colistin (E. coli NCTC 13846; colistin 0.06 μg/mL): > 100 µg/mL
MBC of compound in combination with colistin (E. coli NCTC 13846; colistin 0.125 μg/mL): > 100|> 100 μg/mL
MIC of compound in combination with colistin (E. coli NCTC 13846; colistin 0.125 μg/mL): > 100|> 100 μg/mL
MIC of compound in combination with colistin (E. coli NCTC 13846; colistin 0.25 μg/mL): > 100 µg/mL
MIC of compound in combination with colistin (E. coli NCTC 13846; colistin 0.5 μg/mL): > 100 µg/mL
MIC of colistin in combination with the compound (E. cloacae CQ1941; Cpd conc. 0.4 μg/mL, strain D): 0.5 µg/mL
MIC of colistin in combination with the compound (E. cloacae CQ1941; Cpd conc. 0.8 μg/mL, strain D): 0.5 µg/mL
MIC of colistin in combination with the compound (E. cloacae CQ1941; Cpd conc. 3.125 μg/mL, strain D): 0.125 µg/mL
MIC of colistin in combination with the compound (E. cloacae CQ1941; Cpd conc. 6.25 μg/mL, strain D): 0.125 µg/mL
MIC of colistin in combination with the compound (E. cloacae CQ1941; Cpd conc. 12.5 μg/mL, strain D): 0.125 µg/mL
MIC of colistin in combination with the compound (E. cloacae CQ1941; Cpd conc. […], strain D): 0.5 µg/mL
MIC (E. cloacae CQ1941; agent alone, no adjuvant (polymyxin conc. 0), strain D, read-out: MIC): > 100 µg/mL
MIC (E. cloacae CQ1941; [1]): > 100 µg/mL
MIC of compound in combination with PMB (E. cloacae CQ1941; PMB 0.25 μg/mL, strain D): > 100 µg/mL
MIC of compound in combination with PMB (E. cloacae CQ1941; PMB 0.5 μg/mL, strain D): 1.6 µg/mL
MIC of compound in combination with colistin (E. cloacae CQ1941; colistin 0.06 μg/mL, strain D): > 100 µg/mL
MBC of compound in combination with colistin (E. cloacae CQ1941; colistin 0.125 μg/mL, strain D): 6.3 µg/mL
MIC of compound in combination with colistin (E. cloacae CQ1941; colistin 0.125 μg/mL, strain D): 3.1 µg/mL
MIC of compound in combination with colistin (E. cloacae CQ1941; colistin 0.25 μg/mL, strain D): 3.1 µg/mL
MIC of compound in combination with colistin (E. cloacae CQ1941; colistin 0.5 μg/mL, strain D): ≤ 0.1 µg/mL
MICA(A + B) (MIC of compound in combination with colistin) (E. cloacae CQ1941; [2]): 3.125 mg/L
MICB(A + B) (MIC of colistin in combination with compound) (E. cloacae CQ1941; [2]): 0.125 mg/L
